Experiments:
[1] = target: hERG (Homo sapiens, UniProt Q12809); experiment: hERG IC50; type: cell-based
[2] = Liver S9 stability assay; type: in vitro ADME, rat
Description: Liver S9 stability assay: Test compounds (1 μM) and positive control were incubated with 5 mM GSH and liver S9 (1 mg protein/ml) from multiple species (including human, monkey, dog, rat and mouse) at 37° C. at 0, 10, 30, and 60 minutes in duplicate. After adding the stop solution, 100 μL of supernatant were analyzed by LC-MS/MS. The % remaining of test compound, T1/2 (min), and CLint (μL/min/mg) were calculated and were reported.

[3] = target: KRAS G12V (Homo sapiens, UniProt P01116, G12V); experiment: Selectivity panel (Table 3); type: binding
Sequence of KRAS G12V (P01116 1-188 isoform P01116-2 G12V): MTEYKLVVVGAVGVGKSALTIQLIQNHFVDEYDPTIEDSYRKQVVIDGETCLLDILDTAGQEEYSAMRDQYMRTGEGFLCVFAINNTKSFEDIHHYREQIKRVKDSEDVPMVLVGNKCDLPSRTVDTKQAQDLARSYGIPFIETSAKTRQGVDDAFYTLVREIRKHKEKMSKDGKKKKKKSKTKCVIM

Sequence of hERG (Q12809 whole entry): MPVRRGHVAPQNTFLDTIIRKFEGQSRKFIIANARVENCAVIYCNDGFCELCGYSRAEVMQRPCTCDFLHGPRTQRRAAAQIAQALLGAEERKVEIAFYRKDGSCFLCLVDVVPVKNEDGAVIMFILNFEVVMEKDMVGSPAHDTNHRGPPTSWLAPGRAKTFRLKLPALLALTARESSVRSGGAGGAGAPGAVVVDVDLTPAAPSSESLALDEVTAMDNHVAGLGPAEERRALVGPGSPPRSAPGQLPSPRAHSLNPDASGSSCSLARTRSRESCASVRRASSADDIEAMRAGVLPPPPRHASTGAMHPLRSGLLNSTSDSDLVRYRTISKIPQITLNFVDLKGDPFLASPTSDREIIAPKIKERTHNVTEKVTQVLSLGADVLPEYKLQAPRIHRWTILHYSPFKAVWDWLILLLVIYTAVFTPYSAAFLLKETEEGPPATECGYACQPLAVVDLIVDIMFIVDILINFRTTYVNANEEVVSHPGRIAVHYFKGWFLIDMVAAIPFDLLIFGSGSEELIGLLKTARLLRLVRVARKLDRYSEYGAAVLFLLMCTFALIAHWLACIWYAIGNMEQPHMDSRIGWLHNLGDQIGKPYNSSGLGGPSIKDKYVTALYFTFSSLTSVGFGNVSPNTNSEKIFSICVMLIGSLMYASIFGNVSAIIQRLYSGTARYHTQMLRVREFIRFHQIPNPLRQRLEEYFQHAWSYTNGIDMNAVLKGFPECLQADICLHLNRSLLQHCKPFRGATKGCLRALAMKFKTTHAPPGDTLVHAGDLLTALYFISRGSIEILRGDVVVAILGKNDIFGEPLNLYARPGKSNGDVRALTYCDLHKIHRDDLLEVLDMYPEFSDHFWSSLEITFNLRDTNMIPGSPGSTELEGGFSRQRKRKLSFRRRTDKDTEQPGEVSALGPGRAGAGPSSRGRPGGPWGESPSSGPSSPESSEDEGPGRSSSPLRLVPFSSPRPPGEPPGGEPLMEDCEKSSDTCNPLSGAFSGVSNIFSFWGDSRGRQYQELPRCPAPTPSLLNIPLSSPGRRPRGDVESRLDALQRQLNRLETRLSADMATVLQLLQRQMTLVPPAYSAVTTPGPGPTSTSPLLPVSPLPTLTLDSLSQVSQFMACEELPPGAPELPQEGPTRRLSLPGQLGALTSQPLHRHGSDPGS

Cc1c(F)c(N)cc(C(=O)Nc2cc(-n3cc(C(=O)N4CCN(C)CC4)nn3)c(F)cc2N2C[C@@H](C)N(C)[C@@H](C)C2)c1Cl [HYBI-084, 5-amino-2-chloro-4-fluoro-N-(4-fluoro-5-(4-(4-methylpiperazine-1-carbonyl)-1H-1,2,3-triazol-1-yl)-2-((3S,5R)-3,4,5-trimethylpiperazin-1-yl)phenyl)-3-methylbenzamide]
IC50 [1]: 22.2 µM
half-life at 1 μM ([2]; Rat liver S9): > 2.42 h
microsomal CLint at 1 μM ([2]; Rat liver S9): < 4.8 µL/min/mg
% Remaining after 60 min incubation ([2]; Rat liver S9, 1 μM, 5 mM GSH, 37° C.): 80.1%
IC50 [3]: > 1 µM

— patent US20230293539A1, “MLL1-WDR5 PROTEIN-PROTEIN INTERACTION INHIBITOR COMPOUNDS AND USES THEREOF” (HUYABIO International, LLC, priority 2022, published 2023)
